Results: ChEMBL document CHEMBL1134781, “1,2-Benzothiazine 1,1-dioxide P(2)-P(3) peptide mimetic aldehyde calpain I inhibitors” (J Med Chem, 2001)
pIC50: −log10 of the molar value. Blank lines part the entries; values can stand above or below the compound they belong to.

Tests used:
MOLT-4 = assay: Inhibitory concentration against MOLT-4 cells (human T-cell leukemia cell line)
[1] = molecular target: T1, Calpain-1 catalytic subunit (Homo sapiens, UniProt P07384); assay: (§1) Inhibitory activity towards human calpain I
T1 sequence (P07384 whole entry): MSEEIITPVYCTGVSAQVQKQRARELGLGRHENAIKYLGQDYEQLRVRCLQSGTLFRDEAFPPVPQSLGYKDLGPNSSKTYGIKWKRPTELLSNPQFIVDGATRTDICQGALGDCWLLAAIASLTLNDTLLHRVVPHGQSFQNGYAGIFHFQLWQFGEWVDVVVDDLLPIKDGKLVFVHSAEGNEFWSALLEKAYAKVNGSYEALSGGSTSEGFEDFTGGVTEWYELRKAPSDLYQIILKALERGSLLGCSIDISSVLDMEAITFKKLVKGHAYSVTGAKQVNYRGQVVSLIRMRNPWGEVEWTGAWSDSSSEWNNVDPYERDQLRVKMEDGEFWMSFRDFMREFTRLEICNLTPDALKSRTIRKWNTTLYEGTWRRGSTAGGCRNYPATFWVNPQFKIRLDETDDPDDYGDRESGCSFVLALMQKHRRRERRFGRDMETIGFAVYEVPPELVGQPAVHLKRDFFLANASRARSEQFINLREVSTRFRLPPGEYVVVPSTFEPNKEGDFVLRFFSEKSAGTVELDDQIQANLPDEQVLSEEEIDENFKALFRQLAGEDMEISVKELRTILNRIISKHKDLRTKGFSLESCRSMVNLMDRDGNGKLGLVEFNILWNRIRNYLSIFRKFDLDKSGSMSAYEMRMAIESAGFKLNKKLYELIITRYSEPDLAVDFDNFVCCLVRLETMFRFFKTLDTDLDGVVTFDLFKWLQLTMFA

[2] = molecular target: T1, Calpain-1 catalytic subunit; assay: Inhibitory activity against calpain-I
[3] = molecular target: T1, Calpain-1 catalytic subunit; assay: as §1; remark: listed apart in the source
[4] = molecular target: T1, Calpain-1 catalytic subunit; assay: Compound was evaluated for inhibitory activity towards human calpain I isomer 1

- pIC50 (MOLT-4): 5.39
- pIC50 [1]: 6.30
Compound: CN1C(C(=O)N[C@H](C=O)Cc2ccccc2)Cc2cc(N3CCOCC3)ccc2S1(=O)=O (stereo partly specified)

- pIC50 (MOLT-4): 5.66
Compound: CN1C(C(=O)N[C@H](C=O)Cc2ccccc2)Cc2cc(Cl)ccc2S1(=O)=O (stereo partly specified)

- pIC50 [2]: 7.96
Compound: CS(=O)(=O)NC(COCc1ccccc1)C(=O)N[C@H](C=O)Cc1ccccc1 (stereo partly specified)

- pIC50 (MOLT-4): 5.49
Compound: COC1=C(C(=O)N[C@H](C=O)Cc2ccccc2)N(C)S(=O)(=O)c2ccccc21

- pIC50 [1]: 6.70
- pIC50 [3]: 6.70
Compound: CC(C)CN1C(C(=O)N[C@H](C=O)Cc2ccccc2)Cc2cc(Cl)ccc2S1(=O)=O (stereo partly specified)

- pIC50 [4]: ~5.30
Compound: O=C[C@H](Cc1ccccc1)NC(=O)C1Cc2ccccc2C(=O)N1 (stereo partly specified)

- pIC50 [1]: 6.10
- pIC50 [3]: 6.15
Compound: COc1cc2c(cc1OC)S(=O)(=O)NC(C(=O)N[C@H](C=O)Cc1ccccc1)C2 (stereo partly specified)

- pIC50 (MOLT-4): 6.05
Compound: CN1C(C(=O)N[C@H](C=O)Cc2ccccc2)=Cc2cc3c(cc2S1(=O)=O)OCCO3

- pIC50 [4]: 7.07
- pIC50 [1]: ~6.00
Compound: CN1C(=O)c2ccccc2CC1C(=O)N[C@H](C=O)Cc1ccccc1 (stereo partly specified)

- pIC50 [1]: 6.00
Compound: COc1cc2c(cc1OC)S(=O)(=O)N(Cc1ccccc1)C(C(=O)N[C@H](C=O)Cc1ccccc1)C2 (stereo partly specified)

- pIC50 (MOLT-4): 5.72
Compound: COc1cc2c(cc1OC)S(=O)(=O)N(C)C(C(=O)N[C@H](C=O)Cc1ccccc1)C2 (stereo partly specified)

- pIC50 (MOLT-4): 5.74
Compound: CN1C(C(=O)N[C@H](C=O)CCCCNS(=O)(=O)c2ccccc2)Cc2cc3c(cc2S1(=O)=O)OCCO3 (stereo partly specified)

- pIC50 (MOLT-4): 5.77
Compound: CN1C(C(=O)N[C@H](C=O)Cc2ccccc2)Cc2ccccc2S1(=O)=O (stereo partly specified)

- pIC50 [2]: 7.70
Compound: O=C[C@H](Cc1ccccc1)NC(=O)C(Cc1ccccc1)NS(=O)(=O)c1ccccc1 (stereo partly specified)

- pIC50 (MOLT-4): 5.59
Compound: CC(C)N1C(C(=O)N[C@H](C=O)Cc2ccccc2)Cc2cc3c(cc2S1(=O)=O)OCCO3 (mixture of isomers)

- pIC50 (MOLT-4): 5.70
Compound: CN1C(C(=O)N[C@H](C=O)Cc2ccccc2)Cc2cc3c(cc2S1(=O)=O)OCCO3 (mixture of isomers)

- pIC50 (MOLT-4): 5.66
Compound: COc1cc2c(cc1OC)S(=O)(=O)OC(C(=O)N[C@H](C=O)Cc1ccccc1)C2 (mixture of isomers)
